Measurements: patent US10829484B2, “Compounds and methods for kinase modulation, and indications therefor” (Plexxikon Inc., priority 2015, dated 2020)

Target: T1, BaF3-FLT3-ITD-D835V (Homo sapiens, UniProt P36888, INS600HVDFREYEYD/D835V, cells depend on it)
T1 sequence (P36888 with tags, fused parts or gaps INS600HVDFREYEYD/D835V): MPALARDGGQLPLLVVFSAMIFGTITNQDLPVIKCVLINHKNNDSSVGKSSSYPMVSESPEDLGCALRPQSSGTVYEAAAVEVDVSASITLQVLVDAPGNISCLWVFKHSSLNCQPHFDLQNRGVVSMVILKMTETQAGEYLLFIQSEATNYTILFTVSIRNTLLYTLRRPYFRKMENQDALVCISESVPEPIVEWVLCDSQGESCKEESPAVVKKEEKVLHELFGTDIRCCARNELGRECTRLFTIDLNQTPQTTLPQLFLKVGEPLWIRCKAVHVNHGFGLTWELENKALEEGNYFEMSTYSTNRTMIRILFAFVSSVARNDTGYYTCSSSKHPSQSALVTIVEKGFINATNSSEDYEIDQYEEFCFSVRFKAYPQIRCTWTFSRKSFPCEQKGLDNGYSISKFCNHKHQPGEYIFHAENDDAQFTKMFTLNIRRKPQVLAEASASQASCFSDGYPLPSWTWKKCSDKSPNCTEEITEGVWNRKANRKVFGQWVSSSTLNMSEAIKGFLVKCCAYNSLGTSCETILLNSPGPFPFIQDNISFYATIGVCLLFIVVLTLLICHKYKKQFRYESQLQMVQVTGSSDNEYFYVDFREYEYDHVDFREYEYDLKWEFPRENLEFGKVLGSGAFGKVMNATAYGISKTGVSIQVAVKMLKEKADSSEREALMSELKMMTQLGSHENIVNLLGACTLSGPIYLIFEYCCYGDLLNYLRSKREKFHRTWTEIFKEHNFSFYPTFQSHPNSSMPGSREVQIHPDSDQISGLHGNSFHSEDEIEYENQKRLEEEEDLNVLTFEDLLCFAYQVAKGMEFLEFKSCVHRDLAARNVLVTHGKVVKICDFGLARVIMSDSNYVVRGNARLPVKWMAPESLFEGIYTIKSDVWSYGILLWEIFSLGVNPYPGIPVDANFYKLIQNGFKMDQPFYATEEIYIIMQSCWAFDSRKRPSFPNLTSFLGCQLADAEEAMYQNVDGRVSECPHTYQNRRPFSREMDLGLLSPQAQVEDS
Experiment: CTB viability assay CS0048, BaF3-FLT3-ITD-D835V
Type: cell-based, murine
Details: BaF3-FLT3-ITD-D835V cells, CellTiter Blue viability, 72 hours; read-out: Cell Assay: CS0048: BaF3-FLT3-ITD-D835V CTB:IC50
Source text: Gene constructs containing the human FLT3 sequences FLT3-ITD, FLT3-ITD-F691L, FLT3-ITD-D835V and FLT3-D835V were synthesized by reverse translation of the human protein sequences, with codons optimized for mammalian expression. Sequence of the internal tandem duplication (ITD) was based on the MV4-11 ITD sequence. Synthetic DNA constructs were cloned into the pMSCV puro retroviral vector (Clontech) and transfected into the EcoPack2-293 packaging cell line (Clontech) to generate retroviruses that contain the different FLT3 constructs. Viruses were transduced into the IL-3-dependent, murine […] cell line, Ba/F3, and selected for puromycin resistance and IL-3 independence. All cell lines were cloned by limiting dilution and clones were used for all subsequent cell assays. Overexpression of the FLT3 mutants in the Ba/F3 cells results in constitutive phosphorylation of the exogenous FLT3 protein, which is required for IL-3 independence.
Cell lines were serum starved overnight in media containing 0.5% FBS, plated at 15,000 cells/well in 96-well white-walled tissue culture plates, and 3-fold serial dilutions of test compounds of Formula I were added for 72 hours at 37° C. CellTiter Blue (CTB, Promega) was added and incubated for an additional 3 hours at 37° C. Fluorescence was read at 560 nm excitation, 590 nm emission. Wells with CTB+media only were used for background subtraction, and the fluorescence of compound-treated cells was normalized to the fluorescence of DMSO-treated cells. IC50s were determined using Igor Pro software. All compounds are assayed in duplicate cell plates.

SMILES	GI50 [nM]
O=C(Cc1ccc(-c2ccc(Nc3ccccc3)nc2)cc1F)Nc1cc(C2(C(F)(F)F)CC2)on1 [P-003, 2-[4-(6-anilino-3-pyridyl)-2-fluoro-phenyl]-N-[5-[1-(trifluoromethyl)cyclopropyl]isoxazol-3-yl]acetamide]	10 to 50
O=C(Cc1ccc(-c2cnc(Nc3ccccc3)cn2)cc1F)Nc1cc(C2(C(F)(F)F)CC2)on1 [P-005, 2-[4-(5-anilinopyrazin-2-yl)-2-fluorophenyl]-N-[5-[1-(trifluoromethyl)cyclopropyl]isoxazol-3-yl]acetamide]	10 to 50
CCn1cnc(Nc2ncc(-c3ccc(CC(=O)Nc4cc(C5(C(F)(F)F)CC5)on4)c(F)c3)cn2)c1 [P-068, 2-[4-[2-[(1-ethylimidazol-4-yl)amino]pyrimidin-5-yl]-2-fluorophenyl]-N-[5-[1-(trifluoromethyl)cyclopropyl]isoxazol-3-yl]acetamide]	10 to 50
Cn1cc(Nc2ncc(-c3ccc(CC(=O)Nc4cc(C5(C(F)(F)F)CC5)on4)c(F)c3)cn2)c(C(F)(F)F)n1 [P-077, 2-[2-fluoro-4-[2-[[1-methyl-3-(trifluoromethyl)pyrazol-4-yl]amino]pyrimidin-5-yl]phenyl]-N-[5-[1-(trifluoromethyl)cyclopropyl]isoxazol-3-yl]acetamide]	10 to 50
Cn1nccc1Nc1ncc(-c2ccc(CC(=O)Nc3cc(C4(C(F)(F)F)CC4)on3)c(F)c2)cn1 [P-091, 2-[2-fluoro-4-[2-[(2-methylpyrazol-3-yl)amino]pyrimidin-5-yl]phenyl]-N-[5-[1-(trifluoromethyl)cyclopropyl]isoxazol-3-yl]acetamide]	10 to 50
CCn1nccc1Nc1ncc(-c2ccc(CC(=O)Nc3cc(C4(C(F)(F)F)CC4)on3)c(F)c2)cn1 [P-103, 2-[4-[2-[(2-ethylpyrazol-3-yl)amino]pyrimidin-5-yl]-2-fluorophenyl]-N-[5-[1-(trifluoromethyl)cyclopropyl]isoxazol-3-yl]acetamide]	10 to 50
Cn1cnc(Nc2ncc(-c3ccc(CC(=O)Nc4cc(C5(C)CC5)no4)c(F)c3)cn2)c1 [P-112, 2-[2-fluoro-4-[2-[(1-methylimidazol-4-yl)amino]pyrimidin-5-yl]phenyl]-N-[3-(1-methylcyclopropyl)isoxazol-5-yl]acetamide]	10 to 50
Cc1cc(C(=O)N(C)C)ccc1Nc1ncc(-c2ccc(CC(=O)Nc3cc(C4(C(F)(F)F)CC4)on3)c(F)c2)cn1 [P-113, 4-[[5-[3-fluoro-4-[2-oxo-2-[[5-[1-(trifluoromethyl)cyclopropyl]isoxazol-3-yl]amino]ethyl]phenyl]pyrimidin-2-yl]amino]-N,N,3-trimethyl-benzamide]	10 to 50
CC(O)c1nn(C)cc1Nc1ncc(-c2ccc(CC(=O)Nc3cc(C4(C(F)(F)F)CC4)on3)c(F)c2)cn1 (stereo not drawn) [P-114, 2-[2-fluoro-4-[2-[[3-(1-hydroxyethyl)-1-methylpyrazol-4-yl]amino]pyrimidin-5-yl]phenyl]-N-[5-[1-(trifluoromethyl)cyclopropyl]isoxazol-3-yl]acetamide]	10 to 50
Cc1nn(C)cc1Nc1ncc(-c2ccc(CC(=O)Nc3cc(C4(C(F)(F)F)CC4)on3)c(F)c2)c(C)n1 [P-116, 2-[4-[2-[(1,3-dimethylpyrazol-4-yl)amino]-4-methyl-pyrimidin-5-yl]-2-fluorophenyl]-N-[5-[1-(trifluoromethyl)cyclopropyl]isoxazol-3-yl] acetamide]	10 to 50
COc1nn(C)cc1Nc1ncc(-c2ccc(CC(=O)Nc3cc(C4(C(F)(F)F)CC4)on3)c(F)c2)c(OC)n1 [P-123, 2-[2-fluoro-4-[4-methoxy-2-[(3-methoxy-1-methyl-pyrazol-4-yl)amino]pyrimidin-5-yl]phenyl]-N-[5-[1-(trifluoromethyl)cyclopropyl]isoxazol-3-yl]acetamide]	10 to 50
COc1nn(C)cc1Nc1ncc(-c2ccc(CC(=O)Nc3cc(C4(C(F)(F)F)CC4)on3)c(F)c2)c(C)n1 [P-124, 2-[2-fluoro-4-[2-[(3-methoxy-1-methylpyrazol-4-yl)amino]-4-methyl-pyrimidin-5-yl]phenyl]-N-[5-[1-(trifluoromethyl)cyclopropyl]isoxazol-3-yl] acetamide]	10 to 50
COc1nn(C2CC2)cc1Nc1ncc(-c2ccc(CC(=O)Nc3cc(C4(C(F)(F)F)CC4)on3)c(F)c2)c(OC)n1 [P-136, 2-[4-[2-[(1-cyclopropyl-3-methoxypyrazol-4-yl)amino]-4-methoxy-pyrimidin-5-yl]-2-fluorophenyl]-N-[5-[1-(trifluoromethyl)cyclopropyl]isoxazol-3-yl]acetamide]	10 to 50
COCCOc1nn(C)cc1Nc1ncc(-c2ccc(CC(=O)Nc3cc(C4(C(F)(F)F)CC4)on3)c(F)c2)cn1 [P-148, 2-[2-fluoro-4-[2-[[3-(2-methoxyethoxy)-1-methylpyrazol-4-yl]amino]pyrimidin-5-yl]phenyl]-N-[5-[1-(trifluoromethyl)cyclopropyl]isoxazol-3-yl]acetamide]	10 to 50
Cc1nn(C)cc1Nc1ncc(-c2ccc(CC(=O)Nc3cc(C4(C(F)(F)F)CC4)on3)c(F)c2)c(Cl)n1 [P-157, 2-[4-[4-chloro-2-[(1,3-dimethylpyrazol-4-yl)amino]pyrimidin-5-yl]-2-fluoro-phenyl]-N-[5-[1-(trifluoromethyl)cyclopropyl]isoxazol-3-yl]acetamide]	10 to 50
COc1cc(Nc2ncc(-c3ccc(CC(=O)Nc4cc(C5(C(F)(F)F)CC5)on4)c(F)c3)cn2)n(C)n1 [P-164, 2-[2-fluoro-4-[2-[(5-methoxy-2-methyl-pyrazol-3-yl)amino]pyrimidin-5-yl]phenyl]-N-[5-[1-(trifluoromethyl)cyclopropyl]isoxazol-3-yl]acetamide]	10 to 50
Cn1cnc(Nc2ncc(-c3ccc(CC(=O)Nc4cc(C5(C(F)F)CC5)on4)c(F)c3)cn2)c1 [P-184, N-[5-[1-(difluoromethyl)cyclopropyl]isoxazol-3-yl]-2-[2-fluoro-4-[2-[(1-methylimidazol-4-yl)amino]pyrimidin-5-yl]phenyl] acetamide]	10 to 50
CCc1n[nH]cc1Nc1ncc(-c2ccc(CC(=O)Nc3cc(C4(C(F)(F)F)CC4)on3)c(F)c2)cn1 [P-214, 2-(4-(2-((3-ethyl-1H-pyrazol-4-yl)amino)pyrimidin-5-yl)-2-fluorophenyl)-N-(5-(1-(trifluoromethyl)cyclopropyl)isoxazol-3-yl)acetamide]	10 to 50
